Patent US4301313A, “Halogenated ethynyl biphenyls” (Eli-Lilly and Company, priority 1974, dated 1981)
Where “and” joins values, the source holds several entries; their conditions need not be identical. Identical values can stand only once.

Tests used:
[1] = ultraviolet-induced erythema blocking test, oral (modified Winder method); format: in vivo, guinea pig (male albino); settings: Cavia porcellus, guinea pig, weighted scores 1.0-2.5 h after UV, dose which provides 50% inhibition
Protocol: (§1) The compounds of the present invention were evaluated for anti-inflammatoryactivity by the ultraviolet-induced erythema blocking test. The test procedures were a modification of the Winder method (Winder, C. V.; Wax, J.; Burr, V.; Been, M.; and Posiere, C. E.: A Study of Pharmacological Influences on Ultraviolet Erythema in Guinea Pigs. Arch. Int. Pharmacodyn. 116: 261, 1958). Male albino guinea pigs weighing 240-300 gm. were used. The hair on the back was clipped and chemically depilated 15-18 hours before each experiment. The animals were fasted overnight, and on the day of the experiment, were randomized and placed in clear plastic partitioned holders 10×20 cm. wide and 15 cm. high.
(§2) The compounds to be tested were suspended in 1% methyl cellulose in water, utilizing a tissue homogenizer. The suspensions were administered orally in a volume of 2.0 ml./kg. of body weight. Control animals received an equal amount of the vehicle.
(§3) The source of ultraviolet light was a Hanovia lamp (Kromayer-Model 10). A notebook reinforcement ring was placed upon the lens of the lamp to provide an area of contrast for grading purposes. The lens was then placed in contact with the skin of the guinea pig's back. Exposure time to UV was for a period of 4 seconds. Beginning one hour after exposure and thereafter at half-hour intervals for another 11/2 hours, the degree of resulting erythema was graded by an arbitrary scoring system based upon the degree of contrast and redness formed. Anti-inflammatory agents delay the development of the erythema and have their greatest effect at the initial grading periods. The scores were, therefore, weighted by factors of 4, 3, 2, and 1 at the 1.0, 1.5, 2.0, and 2.5 hour scoring times, respectively. The erythema was graded as follows:
Total scores from each treatment group of four guinea pigs were compared to the scores of the control group. The percent inhibition was calculated as follows: [formula] In the case of compounds showing inhibition, retesting was carried out at a plurality of doses to enable calculation of an ED50 for each such compound. "ED50 " designates that dose which provides 50% inhibition. Calculation of the ED50 was either by a standard linear regression method or by estimation from a dose-response curve of three or more points. The compounds so tested and their ED50 s were as follows: […]

[2] = ultraviolet-induced erythema test, compound administered 8 or 22 hours prior to exposure; format: in vivo, guinea pig; settings: 0.5 mg./kg.; for Score 0.5 hours after exposure to ultraviolet: 0.5 h reading; for Score 1.0 hours after exposure to ultraviolet: 1.0 h reading; for Score 1.5 hours after exposure to ultraviolet: 1.5 h reading; for Score 2.0 hours after exposure to ultraviolet: 2.0 h reading; for Score 2.5 hours after exposure to ultraviolet: 2.5 h reading; for Score 3.0 hours after exposure to ultraviolet: 3.0 h reading
Protocol: as §1, §2, §3
(§4) Total scores from each treatment group of four guinea pigs were compared to the scores of the control group. The percent inhibition was calculated as follows: [formula] In the case of compounds showing inhibition, retesting was carried out at a plurality of doses to enable calculation of an ED50 for each such compound. "ED50 " designates that dose which provides 50% inhibition. Calculation of the ED50 was either by a standard linear regression method or by estimation from a dose-response curve of three or more points. The compounds so tested and their ED50 s were as follows:
(4-(2-Fluorophenyl)phenyl)acetylene was evaluated again by the procedures of Examples 29-52, except that the compound was administered 8 or 22 hours prior to exposure to ultraviolet light. The dose was uniformly 0.5 mg./kg. Readings were made at half-hour intervals beginning at one-half hour after exposure and ending at three and one-half hours after exposure. Scores were not weighted, and results were recorded only as percent inhibition.

[3] = adjuvant-induced arthritis test (paw volume); format: in vivo, rat (male albino); settings: rat, oral
[4] = ultraviolet-induced erythema test, topical application in alcohol solution; format: in vivo, guinea pig; settings: for Erythemic score, 1 Hr. after U.V. exposure / Erythemic score, 1.5 Hr. after U.V. exposure / Erythemic score, 2 Hr. after U.V. exposure / Erythemic score, 2.5 Hr. after U.V. exposure: unweighted; for Total erythemic score: control 78
Protocol: as §1, §3, §4
(4-(2-Fluorophenyl)phenyl)acetylene was also evaluated for anti-inflammatory effect when applied topically. The test procedures were the same as those reported in Examples 29-52 except for three differences: the compound was applied topically in an alcohol solution immediately after exposure to the ultraviolet; scores were not weighted; and results were recorded only as percent inhibition.

Which ED50 [1] does the source give for C#Cc1ccc(-c2ccccc2F)cc1 [(4-(2-fluorophenyl)phenyl)acetylene] here?
Its ED50 is 0.05 mg/kg.

What about the “% Erythema Inhibition” value ([2]; 8 hours prior to exposure) of the same molecule?
The value was 71%.

What about the “Score 0.5 hours after exposure to ultraviolet” value ([2]; 8 hours prior to exposure) of the same molecule?
The value was 0.

And the “Score 1.0 hours after exposure to ultraviolet” value ([2]; 8 hours prior to exposure)?
Its value is 0.

What about the “Score 1.5 hours after exposure to ultraviolet” value ([2]; 8 hours prior to exposure) of the same molecule?
Its value is 3.

What about the “Score 2.0 hours after exposure to ultraviolet” value ([2]; 8 hours prior to exposure) of the same molecule?
The value was 6.

What about the “Score 2.5 hours after exposure to ultraviolet” value ([2]; 8 hours prior to exposure) of the same molecule?
Its value is 6.

And the “Score 3.0 hours after exposure to ultraviolet” value ([2]; 8 hours prior to exposure)?
The value was 15.

And the “Total Score” value ([2]; 8 hours prior to exposure, control 104)?
The value was 30.

What about the “% Erythema Inhibition” value ([2]; 22 hours prior to exposure) of the same molecule?
The value was 41%.

And the “Score 0.5 hours after exposure to ultraviolet” value ([2]; 22 hours prior to exposure)?
Its value is 3.

And the “Score 1.0 hours after exposure to ultraviolet” value ([2]; 22 hours prior to exposure)?
Its value is 4.

And the “Score 1.5 hours after exposure to ultraviolet” value ([2]; 22 hours prior to exposure)?
The value was 8.

And the “Score 2.0 hours after exposure to ultraviolet” value ([2]; 22 hours prior to exposure)?
Its value is 14.

What about the “Score 2.5 hours after exposure to ultraviolet” value ([2]; 22 hours prior to exposure) of the same molecule?
Its value is 17.

And the “Score 3.0 hours after exposure to ultraviolet” value ([2]; 22 hours prior to exposure)?
Its value is 17.

And the “Total Score” value ([2]; 22 hours prior to exposure, control 107)?
The value was 63.

And the “Percent Inhibition of Volume Increase, Day 7” value ([3]; dose 1 (unit not given))?
The value was 27% and 22%.

What about the “Percent Inhibition of Volume Increase, Day 7” value ([3]; dose 3 (unit not given)) of the same molecule?
Its value is 35% and 29%.

What about the “Percent Inhibition of Volume Increase, Day 7” value ([3]; dose 10 (unit not given)) of the same molecule?
The value was 30% and 23%.

And the “Percent Inhibition of Volume Increase, Day 14” value ([3]; dose 10 (unit not given), Day 14)?
Its value is 5% and 0%.

What about the “% Inhibition” value ([4]; 1 μg applied) of the same molecule?
The value was 28%.

And the “Erythemic score, 1 Hr. after U.V. exposure” value ([4]; 1 μg applied)?
Its value is 6.

And the “Erythemic score, 1.5 Hr. after U.V. exposure” value ([4]; 1 μg applied)?
Its value is 13.

And the “Erythemic score, 2 Hr. after U.V. exposure” value ([4]; 1 μg applied)?
Its value is 18.

What about the “Erythemic score, 2.5 Hr. after U.V. exposure” value ([4]; 1 μg applied) of the same molecule?
The value was 19.

And the Total erythemic score ([4]; 1 μg applied)?
Its Total erythemic score is 56.

What about the “% Inhibition” value ([4]; 10 μg applied) of the same molecule?
The value was 41%.

And the “Erythemic score, 1 Hr. after U.V. exposure” value ([4]; 10 μg applied)?
Its value is 5.

What about the “Erythemic score, 1.5 Hr. after U.V. exposure” value ([4]; 10 μg applied) of the same molecule?
Its value is 10.

What about the “Erythemic score, 2 Hr. after U.V. exposure” value ([4]; 10 μg applied) of the same molecule?
Its value is 14.

And the “Erythemic score, 2.5 Hr. after U.V. exposure” value ([4]; 10 μg applied)?
Its value is 17.

What about the Total erythemic score ([4]; 10 μg applied) of the same molecule?
Its Total erythemic score is 46.

And the “% Inhibition” value ([4]; 100 μg applied)?
The value was 83%.

And the “Erythemic score, 1 Hr. after U.V. exposure” value ([4]; 100 μg applied)?
Its value is 0.

What about the “Erythemic score, 1.5 Hr. after U.V. exposure” value ([4]; 100 μg applied) of the same molecule?
Its value is 1.

What about the “Erythemic score, 2 Hr. after U.V. exposure” value ([4]; 100 μg applied) of the same molecule?
The value was 4.

And the “Erythemic score, 2.5 Hr. after U.V. exposure” value ([4]; 100 μg applied)?
Its value is 8.

What about the Total erythemic score ([4]; 100 μg applied) of the same molecule?
Its Total erythemic score is 13.
